{"source": "patent US9227956B2", "about": "(Pfizer Inc., priority 2013, dated 2016)", "key": {"human PCSK9 [1]": {"tested_on": "human PCSK9", "assay": "Cell Free PCSK9 Assay (PCSK9-luciferase RNA translated in HeLa cell lysate)", "type": "biochemical", "settings": "30° C. for 45 minutes, luciferase readout, top concentration 100 μM"}, "PCSK9 [2]": {"tested_on": "PCSK9", "assay": "PCSK9 lowering in sandwich culture human hepatocytes (SCHH)", "type": "cell-based", "settings": "maximum response versus vehicle; at 8 h at 100 μM"}, "human PCSK9 [3]": {"tested_on": "human PCSK9", "assay": "PCSK9 AlphaLISA assay, PCSK9 lowering in WT7 cells", "settings": "WT7 cells (Huh7 stably over-expressing human PCSK9); secreted PCSK9 by AlphaLISA; overnight incubation (16-24 h); top concentration 20 μM; read-out: Cell Based PCSK9 IC50"}, "PCSK9 [4]": {"tested_on": "PCSK9", "assay": "PCSK9 lowering in sandwich culture human hepatocytes (SCHH)", "type": "cell-based", "settings": "maximum response versus vehicle; at 8 h at 30 μM"}, "PCSK9 [5]": {"tested_on": "PCSK9", "assay": "Global Proteomic Assay (SILAC), PCSK9 protein expression in conditioned media", "type": "cell-based, human", "settings": "Huh7 cells", "experimental": "At the end of the indicated time points, media was removed and protease/phosphatase inhibitors added prior to freezing at −80° C. Cell layers were rinsed with PBS before adding cell dissociation buffer to detach the cells, cells were collected by rinsing with PBS and spun at 1000 rpm for 5 minutes. The cell pellet was resuspended in PBS for washing, spun at 1000 rpm for 5 minutes and the supernatant aspirated. The cell layer was then frozen at −80° C. and both the media and cell pellet were subjected to proteomic analysis.\n(§1) For proteomic analysis of secreted proteins, equal volume of the conditioned media from light, medium, and heavy cells was mixed, followed by depletion of bovine serum albumin by anti-BSA agarose beads. The resulting proteins were subsequently concentrated using 3 KDa MWCO spin columns, reduced with dithiothreitol and alkylated with iodoacetamide.\nThe proteins derived from conditioned media and cell pellets were subsequently fractionated by SDS-PAGE. […]\n(§2) The peptide mixtures were reconstituted in 0.1% formic acid. […] Peptide identification and relative protein quantification were carried out by searching the mass spectra against the human IPI database using Mascot search engine on Proteome Discoverer 1.3. […] Changes in protein expression upon compound treatment were calculated from the relative intensity of isotope-labeled and unlabeled peptides derived from that protein."}, "Huh7 cells": {"tested_on": "Huh7 cells", "assay": "Global Proteomic Assay (SILAC), non-PCSK9 proteins with decreased expression", "type": "cell-based, human", "experimental": "Cell layers were rinsed with PBS before adding cell dissociation buffer to detach the cells, cells were collected by rinsing with PBS and spun at 1000 rpm for 5 minutes. The cell pellet was resuspended in PBS for washing, spun at 1000 rpm for 5 minutes and the supernatant aspirated. The cell layer was then frozen at −80° C. and both the media and cell pellet were subjected to proteomic analysis.\nas §1\nFor the analysis of cellular proteins, cell pellets were lysed in SDS-PAGE loading buffer in the presence of protease/phosphatase inhibitor cocktails. Cell lysates were centrifuged at 12000×g at 4° C. for 10 min. The resulting supernatants were collected, and protein concentrations were measured by BCA assay. Equal amount proteins in the light, medium, and heavy cell lysates were combined, reduced with dithiothreitol and alkylated with iodoacetamide.\nThe proteins derived from conditioned media and cell pellets were subsequently fractionated by SDS-PAGE. The gels were stained with Coomassie blue. After destaining, the gels were cut into 12-15 bands. Proteins were in-gel digested by trypsin overnight, after which peptides were extracted from the gels with CH3CN:1% formic acid (1:1, v/v). The resulting peptide mixtures were desalted with C18 Stage-Tips, dried in speedvac and stored at −20° C. until further analysis.\nas §2"}}}
{"molecule": "Cn1ncc(-c2ccc(C(=O)N(c3ncccc3Cl)[C@@H]3CCCNC3)cc2)c1C(=O)O", "note": "[Example 7, 4-(4-{(3-chloropyridin-2-yl)[(3R)-piperidin-3-yl]carbamoyl}phenyl)-1-methyl-1H-pyrazole-5-carboxylic acid]", "values": [{"measurement": "IC50", "setting": "human PCSK9 [1]", "value": 18, "unit": "µM"}, {"measurement": "Sandwich Culture Hepatocyte (SCHH) PCSK9 Lowering", "setting": "PCSK9 [2]", "value": 26, "unit": "% at 8 h at 100 μM"}, {"measurement": "IC50", "setting": "human PCSK9 [3]", "value": "> 20", "unit": "µM"}]}
{"molecule": "Cn1ncc(-c2ccc(C(=O)N(c3nccc4ccn(C)c34)[C@@H]3CCCNC3)cc2)c1C(=O)O", "note": "[Example 12, 1-methyl-4-(4-{(1-methyl-1H-pyrrolo[2,3-c]pyridin-7-yl)[(3R)-piperidin-3-yl]carbamoyl}phenyl)-1H-pyrazole-5-carboxylic acid]", "values": [{"measurement": "IC50", "setting": "human PCSK9 [1]", "value": 1.7, "unit": "µM"}, {"measurement": "Sandwich Culture Hepatocyte (SCHH) PCSK9 Lowering", "setting": "PCSK9 [4]", "value": 36, "unit": "% at 8 h at 30 μM"}, {"measurement": "IC50", "setting": "human PCSK9 [3]", "value": "> 20", "unit": "µM"}]}
{"molecule": "COC(=O)c1c(-c2ccc(C(=O)N(c3ncccc3C)[C@@H]3CCCNC3)cc2)cnn1C", "note": "[Example 13, Methyl 1-methyl-4-(4-{(3-methylpyridin-2-yl)[(3R)-piperidin-3-yl]carbamoyl}phenyl)-1H-pyrazole-5-carboxylate]", "values": [{"measurement": "IC50", "setting": "human PCSK9 [1]", "value": 0.8, "unit": "µM"}, {"measurement": "Sandwich Culture Hepatocyte (SCHH) PCSK9 Lowering", "setting": "PCSK9 [4]", "value": 83, "unit": "% at 8 h at 30 μM"}, {"measurement": "IC50", "setting": "human PCSK9 [3]", "value": 2.3, "unit": "µM"}]}
{"molecule": "CCOC(=O)O[C@@H](C)OC(=O)c1c(-c2ccc(C(=O)N(c3ncccc3Cl)[C@@H]3CCCNC3)cc2)cnn1C", "note": "[Example 15a, (1S)-1-[(ethoxycarbonyl)oxy]ethyl 4-(4-{(3-chloropyridin-2-yl)[(3R)-piperidin-3-yl]carbamoyl}phenyl)-1-methyl-1H-pyrazole-5-carboxylate]", "values": [{"measurement": "IC50", "setting": "human PCSK9 [1]", "value": 3.1, "unit": "µM"}, {"measurement": "Sandwich Culture Hepatocyte (SCHH) PCSK9 Lowering", "setting": "PCSK9 [4]", "value": 72, "unit": "% at 8 h at 30 μM"}, {"measurement": "IC50", "setting": "human PCSK9 [3]", "value": 7.3, "unit": "µM"}]}
{"molecule": "CCOC(=O)O[C@H](C)OC(=O)c1c(-c2ccc(C(=O)N(c3ncccc3Cl)[C@@H]3CCCNC3)cc2)cnn1C", "note": "[Example 15b, (1R)-1-[(ethoxycarbonyl)oxy]ethyl 4-(4-{(3-chloropyridin-2-yl)[(3R)-piperidin-3-yl]carbamoyl}phenyl)-1-methyl-1H-pyrazole-5-carboxylate]", "values": [{"measurement": "PCSK9 in conditioned media relative to vehicle", "setting": "PCSK9 [5]; 10 μM, 4 and 16 h post-treatment", "value": "significantly reduced"}, {"measurement": "IC50", "setting": "human PCSK9 [1]", "value": 5, "unit": "µM"}, {"measurement": "Sandwich Culture Hepatocyte (SCHH) PCSK9 Lowering", "setting": "PCSK9 [4]", "value": 58, "unit": "% at 8 h at 30 μM"}, {"measurement": "IC50", "setting": "human PCSK9 [3]", "value": 10.7, "unit": "µM"}, {"measurement": "additional proteins in conditioned media with significant decrease in expression", "setting": "Huh7 cells; 10 μM, 4 and 16 h, two proteins (Apolipoprotein A2, Cadherin 1) of approx. 1500", "value": "approx. 0.13%"}]}
{"molecule": "O=C(c1ccc(-n2nnc3cccnc32)cc1)N(c1ncccc1Cl)[C@@H]1CCCNC1", "note": "[Example 16, N-(3-chloropyridin-2-yl)-N-[(3R)-piperidin-3-yl]-4-(3H-[1,2,3]triazolo[4,5-b]pyridin-3-yl)benzamide]", "values": [{"measurement": "decrease of PCSK9 protein expression in the conditioned media", "setting": "PCSK9 [5]; 16 hours of treatment, 0.3 μM", "value": 2, "unit": "fold"}, {"measurement": "IC50", "setting": "human PCSK9 [1]", "value": 0.52, "unit": "µM"}, {"measurement": "Sandwich Culture Hepatocyte (SCHH) PCSK9 Lowering", "setting": "PCSK9 [4]", "value": 87, "unit": "% at 8 h at 30 μM"}, {"measurement": "cellular proteins significantly decreased", "setting": "Huh7 cells; 2 proteins (Apolipoprotein C3, Cadherin 1) of greater than 3000 cellular proteins", "value": 0.067, "unit": "%"}, {"measurement": "additional proteins with significant reduction in expression (media and cells)", "setting": "Huh7 cells; 4 of 4083 proteins", "value": 0.098, "unit": "%"}]}
{"molecule": "Cc1cccnc1N(C(=O)c1ccc(-c2cnn(C)c2-c2nn[nH]n2)cc1)[C@@H]1CCCNC1", "note": "[Example 17, N-(3-methylpyridin-2-yl)-4-[1-methyl-5-(2H-tetrazol-5-yl)-1H-pyrazol-4-yl]-N-[(3R)-piperidin-3-yl]benzamide]", "values": [{"measurement": "IC50", "setting": "human PCSK9 [1]", "value": 3.05, "unit": "µM"}, {"measurement": "Sandwich Culture Hepatocyte (SCHH) PCSK9 Lowering", "setting": "PCSK9 [2]", "value": 63, "unit": "% at 8 h at 100 uM"}, {"measurement": "IC50", "setting": "human PCSK9 [3]", "value": "> 20", "unit": "µM"}]}
{"molecule": "Cc1cccnc1N(C(=O)c1ccc(-c2cnn(C)c2-c2noc(=O)[nH]2)cc1)[C@@H]1CCCNC1", "note": "[Example 18, 4-[1-methyl-5-(5-oxo-4,5-dihydro-1,2,4-oxadiazol-3-yl)-1H-pyrazol-4-yl]-N-(3-methylpyridin-2-yl)-N-[(3R)-piperidin-3-yl]benzamide]", "values": [{"measurement": "IC50", "setting": "human PCSK9 [1]", "value": 5.61, "unit": "µM"}, {"measurement": "Sandwich Culture Hepatocyte (SCHH) PCSK9 Lowering", "setting": "PCSK9 [2]", "value": 15, "unit": "% at 8 h at 100 uM"}, {"measurement": "IC50", "setting": "human PCSK9 [3]", "value": "> 20", "unit": "µM"}]}
